Results as given in patent publication US20170088623A1, “Prophylaxis Against Cancer Metastasis” (Ingeneron, Inc., priority 2015, published 2017).

What was measured:
CXCR4 receptor = conditions: animal and human studies; cited from earlier work
[1] = tested on: LCN2 expression in SKBr3 cells; assay: LCN2 levels in HER2+ SKBr3 cells by Western blotting; assay type: cell-based, human; conditions: SKBr3 cells incubated with inhibitor
Description: FIGS. 3A-D depict experiments showing that LCN2 (NGAL) is a down-stream target of the HER2/PI-3K/AKT/NF-κB pathway.
In addition, overexpression of dominant negative AKT led to reduced expression of LCN2, while overexpression of dominant active AKT increased LCN2 levels ([…]). […] Iannetti A, et al. “The neutrophil gelatinase-associated lipocalin (NGAL), a NF-kappaB-regulated gene, is a survival factor for thyroid neoplastic cells” Proc Natl Acad Sci USA 105(37) (2008) 14058.

c1cc(CN2CCCNCCNCCCNCC2)ccc1CN1CCCNCCNCCCNCC1 [AMD3100]
hematopoietic stem cell mobilization (CXCR4 receptor): able to induce hematopoietic stem cell mobilization

Cc1ccc(S(=O)(=O)/C=C/C#N)cc1 [Bay11-7082]
LCN2 expression [1]: reduced in a dose-dependent manner
